One block for each compound: values may come before it.
Columns and labels:
[1] = target: T1, Induced myeloid leukemia cell differentiation protein Mcl-1 (Homo sapiens, UniProt Q07820); experiment: Inhibition of fluorescein-labeled Bid BH3 peptide (79 to 99 residues) binding to His-tagged MCL1 (171 to 327 residues) (unknown origin) expressed in Escherichia coli Bl21(DE3) cells incubated for 3 hrs by fluorescence polarization assay
[2] = target: T1, Induced myeloid leukemia cell differentiation protein Mcl-1; experiment: Inhibition of 5-FAM-labeled Bid BH3 peptide binding to MCL1 (unknown origin) by fluorescence polarization assay
[3] = target: T1, Induced myeloid leukemia cell differentiation protein Mcl-1; experiment: Inhibition of 5-FAM-labeled Bid BH3 peptide binding to MCL1 (unknown origin) at 50 uM by fluorescence polarization assay relative to control
[4] = target: T2, Apoptosis regulator Bcl-2 (Homo sapiens, UniProt P10415); experiment: Inhibition of FITC-labeled Bim BH3 peptide binding to GST-tagged BCL2 (unknown origin) preincubated for 2 mins followed by FITC-labeled Bim BH3 peptide addition measured after 10 mins by fluorescence polarization assay
Bcl-2-like protein 1 = Bcl-2-like protein 1 (Homo sapiens, UniProt Q07817); experiment: (§1) Inhibition of FAM-labeled Bim BH3 peptide binding to recombinant human N-terminal GST-tagged Bcl-XL (1 to 212 residues) expressed in Escherichia coli BL21(DE3) cells preincubated for 30 mins followed by FAM-labeled Bim BH3 peptide addition measured after 20 mins by fluorescence polarization assay
[5] = target: T2, Apoptosis regulator Bcl-2; experiment: as §1, with “Bid” for “Bim”, “BCL2” for “Bcl-XL”, “34/ 92 to 207” for “212”, “residues) fused with human Bcl-XL” for “residues)”
[6] = as §1, with “Bid” for “Bim”, “recombinant N-terminal His8-tagged” for “recombinant”, “MCL1 (209” for “N-terminal GST-tagged Bcl-XL (1”, “327 residues)/mouse MCL1 (152 to189” for “212”
[7] = target: T1, Induced myeloid leukemia cell differentiation protein Mcl-1; experiment: Inhibition of FAM-labeled Bid BH3 peptide binding to human recombinant MCL1 by fluorescence polarization assay relative to control
[8] = target: T2, Apoptosis regulator Bcl-2; experiment: Inhibition of FAM-labeled Bid BH3 peptide binding to human recombinant BCL2 by fluorescence polarization assay relative to control
[9] = target: T1, Induced myeloid leukemia cell differentiation protein Mcl-1; experiment: Inhibition of FITC-labeled Bid BH3 peptide binding to human GST-tagged MCL1 lacking C-terminal transmembrane domain expressed in Escherichia coli XL-1 Blue cells preincubated for 10 mins followed by FITC-labeled Bid BH3 peptide addition measured after 20 mins by fluorescence polarization assay
[10] = target: T2, Apoptosis regulator Bcl-2; experiment: Inhibition of FITC-labeled Bid BH3 peptide binding to human GST-tagged BCL2 lacking C-terminal transmembrane domain expressed in Escherichia coli XL-1 Blue cells preincubated for 10 mins followed by FITC-labeled Bid BH3 peptide addition measured after 20 mins by fluorescence polarization assay
MEF [11] = experiment: Induction of apoptosis in MEF assessed as dead cells at 10 uM after 24 hrs by Annexin V/propidium iodide staining based method relative to control; format: functional, Mus musculus
MEF [12] = experiment: Induction of apoptosis in […] double knock out MEF assessed as dead cells at 10 uM after 24 hrs by Annexin V/propidium iodide staining based method relative to control; format: functional, Mus musculus
[13] = Inhibition of FITC-labeled Bid BH3 peptide binding to GST-tagged MCL1 harboring N-terminal and C-terminal point mutant (unknown origin) expressed in Escherichia coli Bl21(DE3) cells by fluorescence polarization assay; set-up: species or system Homo sapiens
[14] = target: Induced myeloid leukemia cell differentiation protein Mcl-1 homolog (Mus musculus, UniProt P97287); experiment: Inhibition of biotinylated Bim BH3 peptide binding to recombinant GST-tagged mouse MCL1 with N-terminal truncation of 151 residues and C-terminal truncation of 23 residues expressed in Escherichia coli BL21(DE3) cells preincubated for 1 hr followed by biotinylated Bim BH3 peptide addition measured after 1 hr by ELISA
[15] = target: T1, Induced myeloid leukemia cell differentiation protein Mcl-1; experiment: Binding affinity to MCL1 (unknown origin) incubated for 30 mins by TR-FRET assay
[16] = target: T1, Induced myeloid leukemia cell differentiation protein Mcl-1; experiment: Inhibition of biotinylated Bim BH3 peptide binding to GST-tagged MCL1 (unknown origin) preincubated for 15 mins followed by biotinylated Bim BH3 peptide addition measured after 2 hrs by ELISA

T1 sequence (Q07820 whole entry, the tested form may be a part): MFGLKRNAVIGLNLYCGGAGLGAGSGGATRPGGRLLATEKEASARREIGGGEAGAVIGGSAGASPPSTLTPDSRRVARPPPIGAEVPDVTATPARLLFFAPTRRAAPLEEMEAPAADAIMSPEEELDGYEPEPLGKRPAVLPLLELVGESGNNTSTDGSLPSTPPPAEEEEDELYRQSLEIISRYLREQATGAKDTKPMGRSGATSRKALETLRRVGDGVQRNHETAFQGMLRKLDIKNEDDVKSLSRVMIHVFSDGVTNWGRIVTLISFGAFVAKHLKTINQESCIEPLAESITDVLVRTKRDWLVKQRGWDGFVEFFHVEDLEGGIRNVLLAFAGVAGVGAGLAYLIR
T2 sequence (P10415 whole entry, the tested form may be a part): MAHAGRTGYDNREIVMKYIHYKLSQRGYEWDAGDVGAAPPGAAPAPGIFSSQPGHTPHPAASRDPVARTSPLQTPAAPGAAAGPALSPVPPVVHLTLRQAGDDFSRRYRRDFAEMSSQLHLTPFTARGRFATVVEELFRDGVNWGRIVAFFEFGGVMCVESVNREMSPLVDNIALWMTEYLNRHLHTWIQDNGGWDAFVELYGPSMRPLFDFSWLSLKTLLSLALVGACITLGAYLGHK
Bcl-2-like protein 1, sequence (Q07817 whole entry, the tested form may be a part): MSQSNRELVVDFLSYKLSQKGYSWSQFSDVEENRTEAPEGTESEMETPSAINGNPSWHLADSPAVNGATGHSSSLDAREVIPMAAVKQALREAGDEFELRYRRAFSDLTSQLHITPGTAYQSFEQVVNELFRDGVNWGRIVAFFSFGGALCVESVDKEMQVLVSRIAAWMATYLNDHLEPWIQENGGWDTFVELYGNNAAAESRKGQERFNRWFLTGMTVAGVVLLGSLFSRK
Induced myeloid leukemia cell differentiation protein Mcl-1 homolog, sequence (P97287 whole entry, the tested form may be a part): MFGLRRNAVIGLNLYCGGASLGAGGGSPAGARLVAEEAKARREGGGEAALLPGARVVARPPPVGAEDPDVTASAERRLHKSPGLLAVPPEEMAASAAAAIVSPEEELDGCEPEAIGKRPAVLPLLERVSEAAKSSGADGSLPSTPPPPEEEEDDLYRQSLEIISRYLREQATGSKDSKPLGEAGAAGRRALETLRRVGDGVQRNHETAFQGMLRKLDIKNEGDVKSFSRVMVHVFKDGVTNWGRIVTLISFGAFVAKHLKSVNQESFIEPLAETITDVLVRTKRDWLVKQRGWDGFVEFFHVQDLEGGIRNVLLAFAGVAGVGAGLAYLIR

IC50 [1]: 0.17 µM
Compound: O=C(O)CSc1cc(NS(=O)(=O)c2ccc(-c3ccc(Cl)cc3)cc2)c2ccccc2c1O

Ki [2]: 0.18 µM
inhibition [3]: 66%
Compound: O=C(Cc1cc(O)c(O)c(O)c1)NCc1ccc(C(=O)N2CCN(Cc3ccccc3-c3ccccc3)CC2)cc1

IC50 [1]: 0.17 µM
Compound: O=C(O)CSc1cc(NS(=O)(=O)c2ccc(-c3ccc(F)cc3F)cc2)c2ccccc2c1O

IC50 [1]: 0.17 µM
Compound: O=C(O)CSc1cc(NS(=O)(=O)c2ccc(Oc3ccc(F)cc3)cc2)c2ccccc2c1O

Ki [7]: < 0.3 µM
Ki [8]: < 0.3 µM
Compound: CC(C)c1ccccc1Cc1cc(C(=O)Nc2ccc(S(=O)(=O)c3ccccc3C(C)(C)C)cc2)c(O)c(O)c1O

More lines, now with the values behind:

Compound: Cc1cc2c(C(C)C)c(O)c(O)cc2c(O)c1-c1c(C)cc2c(C(C)C)c(O)c(O)cc2c1O [APOGOSSYPOL]
Ki [4]: 2.8 µM

Compound: CCOC(=O)C1=C(C)N=c2s/c(=C\c3cn(Cc4ccc(-c5ccccc5)cc4)c4ccccc34)c(=O)n2C1c1ccccc1 (stereo not given)
Ki (Bcl-2-like protein 1): 0.017 µM
Ki [5]: 0.53 µM
Ki [6]: 0.2 µM

Compound: COC1=CC(c2cc3ccccc3[nH]2)=N/C1=C\c1[nH]c(C)cc1C [OBATOCLAX]
IC50 [9]: 2.9 µM
IC50 [10]: 1.11 µM

Compound: O=C(O)CSc1cc(NS(=O)(=O)c2ccc(Br)cc2)c2ccccc2c1O
Ki [1]: 1.87 µM
Activity (MEF [11]): 60%
Activity (MEF [12]): 16%

Compound: Cc1cs/c(=N\C2CCCCC2)n1/N=C/c1ccc(O)c(O)c1O
IC50 [13]: 4.78 µM

Compound: O=C(c1ccccc1O)c1[nH]c(Cl)c(Cl)c1-n1c(C(=O)c2ccccc2O)cc(Cl)c1Cl
IC50 [14]: 10 µM

Compound: CC1(C)CCC(CN2CCN(c3ccc(C(=O)NS(=O)(=O)c4ccc(NCC5CCOCC5)c([N+](=O)[O-])c4)c(Oc4cnc5[nH]ccc5c4)c3)CC2)=C(c2ccc(Cl)cc2)C1 [VENETOCLAX]
Ki [15]: > 0.444 µM

Compound: O=C1c2ccc(OS(=O)(=O)C(F)(F)F)cc2Oc2c(Cl)cc(C(=O)c3ccccc3O)n2-c2c1[nH]c(Cl)c2Cl
IC50 [16]: 1.4 µM

Reference: ChEMBL document CHEMBL3817778, “Small molecules targeting Mcl-1: the search for a silver bullet in cancer therapy” (Medchemcomm, 2016)
